ChEMBL document CHEMBL3046534, “QSAR modeling of the inhibition of reverse transcriptase enzyme with benzimidazolone analogs” (Med Chem Res, 2011)

System: Human immunodeficiency virus 1
Assay: Antiviral activity against Human immunodeficiency virus 1 infected human MT4 cells assessed as protection against virus-induced cytopathic effect
Assay type: functional, organism-based
Details: Human immunodeficiency virus 1, MT4

SMILES	EC50 (read-out: EC50) [nM]	EC50 (read-out: pEC50 (converted)) [nM]
O=c1oc2ccc(Cl)cc2n1Cc1c(F)cccc1F	3720	3720
Oc1nc2cc(Cl)ccc2n1Cc1c(F)cccc1F	29600	29600
O=c1[nH]c2ccc(Cl)cc2n1Cc1c(F)cccc1F	–	534

The next lines start with the values.

EC50 (read-out: EC50) [nM]	EC50 (read-out: pEC50 (converted)) [nM]	SMILES
870	870	Oc1nc2ccc(Cl)cc2n1Cc1cccc2ccccc12
2830	2830	CC(C)c1ccc(Cn2c(O)nc3ccc(Cl)cc32)cc1
